{
  "source": "patent US6924266B2",
  "about": "“NTP-peptides and method for removal of tumors” (Nymox Corporation, priority 2001, dated 2005)",
  "tested_on": "muscle tissue, subcutaneous connective tissue, and dermis",
  "assay": "Effect on tissue at sites of injection in normal rats, histopathology at 24 hours",
  "type": "in vivo",
  "conditions": "for effect on tissue at sites of injection (histopathology): injected in skin, subcutaneously and in extremity skeletal muscle, in saline, 100 to 400 mL at 0.1-1 mg/mL, sacrificed at 24 hours; for muscle changes at injection sites compared with controls: extremity skeletal muscle injection; for muscle changes at injection sites compared with controls / spread of necrosis / cell death beyond the site of injection: 24 hours; for spread of necrosis / cell death beyond the site of injection: local injection",
  "protocol": "(§1) Eight normal rats were injected in the skin and subcutaneously, each in four different foci, and in extremity skeletal muscle, each in two different foci, with NTP peptide #43 in saline in quantities of […] at concentrations of 0.1-1 mg/mL delivered from plastic syringes through stainless steel 26 gauge needles.\nThe 48 individual foci of infiltration were excised, fixed in 10% formalin, embedded in paraffin, and stained and examined by standard histopathological methods.\nSimilar groups of control rats were injected with (1) bovine serum albumin 0.1% in saline, (2) normal human serum, (3) physiological saline, (4) noninfectious bacterial proteins, and (5) control peptides and purified and then examined and sacrificed as above, with the excised foci of injection treated as above.\nas §1, with “#17” for “#43”\nThe controls were the same as Example 1.\nas §1, with “#20” for “#43”\nas §1, with “#19” for “#43”\nas §1, with “#16” for “#43”\nas §1, with “#15” for “#43”\nas §1, with “#14” for “#43”",
  "data": [
    {"sequence": "FILFFLRHRCPTL (listed as Homo sapiens) [NTP peptide #19]", "values": [
      {"measurement": "effect on tissue at sites of injection (histopathology)", "value": "cell death and necrosis of tissue at the injection sites"}
    ]},
    {"sequence": "FILFFLRHRCPTLTQDEVQWCDHSS (listed as Homo sapiens) [NTP peptide #20]", "values": [
      {"measurement": "muscle changes at injection sites compared with controls", "value": "entire fields of muscle fiber layers were necrotic"},
      {"measurement": "effect on tissue at sites of injection (histopathology)", "value": "cell death and necrosis of tissue at the injection sites"},
      {"measurement": "spread of necrosis / cell death beyond the site of injection", "value": "did not appear to spread far beyond the site of injection"}
    ]},
    {"sequence": "KCWDYRRAAVPGL (listed as Homo sapiens) [NTP peptide #14]", "values": [
      {"measurement": "effect on tissue at sites of injection (histopathology)", "value": "cell death and necrosis of tissue at the injection sites"}
    ]},
    {"sequence": "KCWDYRRAAVPGLFILFFL (listed as Homo sapiens) [NTP peptide #15]", "values": [
      {"measurement": "effect on tissue at sites of injection (histopathology)", "value": "cell death and necrosis of tissue at the injection sites"}
    ]},
    {"sequence": "KCWDYRRAAVPGLFILFFLRHRCP (listed as Homo sapiens) [NTP peptide #16]", "values": [
      {"measurement": "effect on tissue at sites of injection (histopathology)", "value": "cell death and necrosis of tissue at the injection sites"}
    ]},
    {"sequence": "KCWDYRRAAVPGLFILFFLRHRCPTLTQDEVQWCDHSS (listed as Homo sapiens) [NTP peptide #17]", "values": [
      {"measurement": "muscle changes at injection sites compared with controls", "value": "entire fields of muscle fiber layers were necrotic"},
      {"measurement": "effect on tissue at sites of injection (histopathology)", "value": "abundant acute necrosis of tissue at the injection sites"},
      {"measurement": "spread of necrosis / cell death beyond the site of injection", "value": "did not appear to spread far beyond the site of injection"}
    ]}
  ]
}
